The experiment relates to Human umbilical vein endothelial cells (HUVEC). The experiment is described as follows: Tube formation assay (endothelial differentiation), vectors and Suramin. The class given is cell-based. Conditions: vectors 10,000 vp/cell; Suramin 50 μM; Matrigel. As for the experimental part: Human umbilical vein endothelial cells (HUVECs; Clonetics) were seeded on 1% gelatin-coated plates and incubated at 37° C. for 24 hours. […] Cells exposed to medium alone served as negative controls while cells exposed to Suramin (50 μM) served as positive controls. After a 48-hour incubation period (37° C. in serum-containing medium), infected cells were harvested, counted, and added to Matrigel-coated 24-well plates in triplicate (1.2×10^5 cells per well). Twenty-four hours later, cells were fixed with 10% buffered formalin and examined for differentiation (tube formation) by using an Olympus IX-70 inverted bright-field microscope at 4× and 10× magnification. cl Example 1
Tube Formation Assay. Human umbilical vein endothelial cells (HUVECs; Clonetics) were seeded on 1% gelatin-coated plates and incubated at 37° C. for 24 hours. After incubation, cells were infected for 1 hour with Ad-luc or Ad-mda 7 at 10,000 vp/cell in serum-free medium. Cells exposed to medium alone served as negative controls while cells exposed to Suramin (50 μM) served as positive controls. After a 48-hour incubation period (37° C. in serum-containing medium), infected cells were harvested, counted, and added to Matrigel-coated 24-well plates in triplicate (1.2×10^5 cells per well). […]

As to `Cc1ccc(C(=O)Nc2ccc(S(=O)(=O)O)c3cc(S(=O)(=O)O)cc(S(=O)(=O)O)c23)cc1NC(=O)c1cccc(NC(=O)Nc2cccc(C(=O)Nc3cc(C(=O)Nc4ccc(S(=O)(=O)O)c5cc(S(=O)(=O)O)cc(S(=O)(=O)O)c45)ccc3C)c2)c1` [Suramin], the endothelial tube formation entry is given as “known inhibitor of tube formation”.

The values above are taken from patent US20020183271A1, “Methods of treatment involving human MDA-7” (priority 2000, published 2002).
